These results are taken from PubChem BioAssay (NCI).

Test systems include SN12C renal; SK-MEL-5 melanoma; RXF 393 renal; HCC-2998 colon; SK-MEL-28 melanoma; SNB-75 CNS; NCI-H23 lung; HOP-62 NSCLC; PC-3 prostate; BT-549 breast; HS 578T breast; MALME-3M melanoma.
Common to all, as to assay: NCI tumour cell line growth inhibition, 48 h

“And” between values parts separate entries of the source, which are not always exact repeats. Equal values may be shown once.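 Where inhibition never reached the appropriate level, the endpoint shown equals the highest concentration tested. Otherwise, values were interpolated linearly from a five-concentration, 48-hour dose response in 96-well plates. GI50 is the concentration that inhibits growth by half. At the TGI there is no net growth.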

As for `COc1ccc(C2C(=O)C(Cl)N2Nc2nc(C)cc(=O)[nH]2)cc1OC` (stereo not given), the TGI is 94.2 µM in the experiment on SN12C renal; greater than 100 µM in the experiment with SK-MEL-5 melanoma; greater than 100 µM in the experiment with RXF 393 renal; greater than 100 µM in the experiment on HCC-2998 colon; greater than 100 µM in the experiment with SK-MEL-28 melanoma; 52.7 µM with SNB-75 CNS. Besides, the TGI in the experiment on NCI-H23 lung and with HOP-62 NSCLC was greater than 100 µM in each case.
In the case of `O=C(O)CSCC(=O)O`, the TGI in the experiment on PC-3 prostate, with SN12C renal, with SK-MEL-5 melanoma, in the experiment on RXF 393 renal, in the experiment on SK-MEL-28 melanoma and with SNB-75 CNS was greater than 100 µM in each case. Further, the TGI in the experiment on NCI-H23 lung, with BT-549 breast, in the experiment with HS 578T breast, with HOP-62 NSCLC and in the experiment with MALME-3M melanoma was greater than 100 µM each time.
Consider `Nc1ccc2nc3ccc(N)cc3[n+](-c3ccccc3)c2c1`, for which the TGI was greater than 100 µM with PC-3 prostate; greater than 100 µM in the experiment with SN12C renal; 96.4 µM in the experiment with SK-MEL-5 melanoma; greater than 100 µM with RXF 393 renal; greater than 100 µM in the experiment on HCC-2998 colon; greater than 100 µM in the experiment with SK-MEL-28 melanoma. The TGI in the experiment on SNB-75 CNS is greater than 100 µM; in the experiment with NCI-H23 lung, greater than 100 µM; with BT-549 breast, greater than 100 µM; in the experiment on HS 578T breast it was greater than 100 µM; with HOP-62 NSCLC, greater than 100 µM; with MALME-3M melanoma, 74.7 µM.
`c1ccc(C(c2ccccc2)[P+](c2ccccc2)(c2ccccc2)c2ccccc2)cc1`: the TGI in the experiment on SN12C renal was found to be 11.7 µM; in the experiment with SK-MEL-5 melanoma, 1.15 µM; in the experiment on RXF 393 renal it was 10.6 µM; in the experiment with HCC-2998 colon it was 11.7 µM; in the experiment on SK-MEL-28 melanoma, 5.18 µM; in the experiment on SNB-75 CNS, 5.17 µM. The TGI in the experiment on NCI-H23 lung was 5.05 µM; with HOP-62 NSCLC, 6.63 µM; with MALME-3M melanoma, 14.7 µM.
`Nc1ccc(C2NC(=O)Cc3c2ccc2ccccc32)cc1` (stereo not given): the TGI in the experiment on PC-3 prostate, in the experiment with SK-MEL-5 melanoma, in the experiment with HCC-2998 colon, in the experiment with SK-MEL-28 melanoma, in the experiment with SNB-75 CNS and in the experiment on NCI-H23 lung was greater than 100 µM throughout. The TGI in the experiment on HS 578T breast, in the experiment with HOP-62 NSCLC and with MALME-3M melanoma was greater than 100 µM in each case.
`C=C[C@H]1CC[C@H]2[C@@H]3CC=C4C[C@@H](OC5OCC(O)C(O)C5O)CC[C@]4(C)[C@H]3CC[C@]12C` (stereo not given in full): the TGI with PC-3 prostate is 37.7 µM; in the experiment on SN12C renal it was 33.2 µM; in the experiment on SK-MEL-5 melanoma it was greater than 100 µM; in the experiment on NCI-H23 lung it was 66.3 µM; in the experiment on HS 578T breast, 48.3 µM; in the experiment with HOP-62 NSCLC, greater than 100 µM.
In the case of `COc1ccccc1N1C(Cl)C(=O)C1c1c[nH]c2ccccc12` (stereo not given), the TGI in the experiment on SN12C renal, in the experiment on SK-MEL-5 melanoma, in the experiment with RXF 393 renal, in the experiment on SK-MEL-28 melanoma, with SNB-75 CNS and in the experiment on NCI-H23 lung was greater than 100 µM each time. Moreover, the TGI with HOP-62 NSCLC was greater than 100 µM.
On to `CCCCCCCCCCCCCCCC[N+](C)(C)CCN(Cc1ccc(OC)cc1)c1ncccn1`, for which the GI50 in the experiment with SK-MEL-5 melanoma is 2.68 µM; with RXF 393 renal, 1.52 µM and 0.821 µM; in the experiment with SK-MEL-28 melanoma it was 2.1 µM; in the experiment on SNB-75 CNS, 2.28 µM; in the experiment with BT-549 breast, 2.43 µM; with HS 578T breast, 1.76 µM. Besides, in the experiment on HOP-62 NSCLC, the GI50 was 1.54 µM. Also, the TGI in the experiment with SK-MEL-5 melanoma is 8.77 µM; in the experiment with RXF 393 renal, 3.49 µM and 2.43 µM; in the experiment on SK-MEL-28 melanoma, 4.5 µM; with SNB-75 CNS it was 6.53 µM; in the experiment on BT-549 breast, 5.83 µM; in the experiment with HS 578T breast, 4.4 µM. The TGI with HOP-62 NSCLC was found to be 2.95 µM.
Turning to `FC(F)(F)C(C1=NC(C(F)(F)F)(C(F)(F)F)N=C(N2CCOCC2)O1)C(F)(F)F`, the TGI in the experiment with PC-3 prostate is 63.2 µM; in the experiment with SN12C renal, 36.1 µM; with SK-MEL-5 melanoma, 28.4 µM; in the experiment on RXF 393 renal, 37 µM; in the experiment on HCC-2998 colon, greater than 100 µM; in the experiment on SK-MEL-28 melanoma, 52.4 µM. Moreover, the figures for the TGI with SNB-75 CNS, in the experiment on BT-549 breast and in the experiment on HS 578T breast were greater than 100 µM, 56 µM and greater than 100 µM, respectively.
`COc1cc(-c2c(C#N)c(N)c(C#N)c3c2COc2ccccc2-3)cc(OC)c1OC`: the TGI in the experiment on PC-3 prostate is greater than 100 µM; in the experiment with SN12C renal it was greater than 84.4 µM; in the experiment with SK-MEL-5 melanoma, greater than 100 µM; in the experiment with RXF 393 renal, 34.4 µM; in the experiment with HCC-2998 colon, greater than 100 µM; in the experiment on SK-MEL-28 melanoma it was greater than 100 µM. The TGI with NCI-H23 lung is greater than 60.8 µM; in the experiment on BT-549 breast it was greater than 75.4 µM; with HS 578T breast it was 39.7 µM; in the experiment on HOP-62 NSCLC, 19 µM; in the experiment on MALME-3M melanoma, 48.8 µM.
With `Cc1nc(Nc2ccc(F)cc2)c2sc(=S)n(-c3ccc(F)cc3)c2n1`, the TGI in the experiment on PC-3 prostate turned out to be 35.6 µM; in the experiment on SN12C renal, 27 µM; with SK-MEL-5 melanoma, 27.7 µM; in the experiment with RXF 393 renal it was 25.1 µM; in the experiment with HCC-2998 colon, 24.7 µM; with SK-MEL-28 melanoma it was 27.8 µM. For the same compound, the TGI in the experiment on SNB-75 CNS turned out to be 29.6 µM; in the experiment with NCI-H23 lung, 16.9 µM; with BT-549 breast it was 27.1 µM; in the experiment with HS 578T breast it was 37.7 µM; with HOP-62 NSCLC, 24.1 µM; in the experiment with MALME-3M melanoma, 28.8 µM.
Take `COc1ccc2oc(=O)cc(C)c2c1`: the TGI in the experiment on PC-3 prostate, in the experiment on SN12C renal, in the experiment with SK-MEL-5 melanoma, in the experiment with RXF 393 renal, in the experiment with HCC-2998 colon and in the experiment with SK-MEL-28 melanoma was greater than 100 µM throughout. Besides, the TGI with SNB-75 CNS, in the experiment with NCI-H23 lung, with BT-549 breast, in the experiment on HS 578T breast, in the experiment with HOP-62 NSCLC and in the experiment on MALME-3M melanoma was greater than 100 µM in each case.
